Read-outs that look alike come from different tables or passages of the source.
Legend:
Caki-1 [1] = details: read-out: IC50 Caki-1; 72 h incubation; values previously reported, ref [10]; cited from earlier work
[2] = system: Vascular Endothelial Growth Factor (VEGF); experiment: Immunofluorescent analysis of VEGF level in PC3 cells; format: cell-based, human; details: PC3, IC20 concentration, 24 h incubation
IMR-90 = details: read-out: IC50 IMR-90; 72 h incubation; values previously reported, ref [10]; cited from earlier work
PC3 = experiment: PrestoBlue Cell Viability assay, 72 h; format: cell-based, human; details: read-out: IC50 PC3, 72 h incubation
PC3 cells [3] = experiment: Cell death assay; format: cell-based, human; details: PC3, IC50 concentration, 72 h, flow cytometry
Caki-1 [4] = experiment: PrestoBlue Cell Viability assay, 72 h; details: read-out: IC50 Caki-1, 72 h incubation
PC3 cells [5] = details: previously described, ref [16]; cited from earlier work

| Structure (SMILES) | IC50 (Caki-1 [1]) [µM] | reduction of VEGF [2] [%] | IC50 (IMR-90) [µM] | IC50 (PC3) [µM] | apoptosis, % of the cell population (PC3 cells [3]) [%] | IC50 (Caki-1 [4]) [µM] | reduction of migration (PC3 cells [5]) [%] |
| --- | --- | --- | --- | --- | --- | --- | --- |
| CC(=O)OC[C@H]1O[C@@H]([S-])[C@H](OC(C)=O)[C@@H](OC(C)=O)[C@@H]1OC(C)=O.CCP(CC)CC.[Au+] [Auranofin] | 2.8 ± 0.6 | 50 | 3.7 ± 0.4 | 3.6 ± 0.005 | 73 |  |  |
| N.N.[Cl][Pt][Cl] [Cisplatin] | 23.9 ± 2.4 |  | 3.9 ± 0.5 | 6.7 ± 2.8 |  |  |  |
| COc1ccc(C[C]2([Ti+2][C]3(Cc4ccc(OC)cc4)C=CC=C3)C=CC=C2)cc1.[Cl-].[Cl-] [Titanocene-Y] |  |  |  | 58.1 ± 11.2 |  | 29.4 ± 4.2 | 19 |
